In ChEMBL document CHEMBL5528076, “Development of Selective Pyrido[2,3-d]pyrimidin-7(8H)-one-Based Mammalian STE20-Like (MST3/4) Kinase Inhibitors” (J Med Chem, 2024):

How the values were obtained:
[1] = target: Serine/threonine-protein kinase SIK2 (Homo sapiens, UniProt Q9H0K1); assay: Inhibition of SIK2 (unknown origin) expressed in HEK293T cells using NanoGlo as substrate incubated for 20 hrs by NanoBRET assay; format: cell-based
[2] = target: T1, Serine/threonine-protein kinase 26 (Homo sapiens, UniProt Q9P289); assay: Binding affinity to recombinant MST4 (unknown origin) assessed as change in melting temperature by DSF analysis
Target sequence in this assay (Q9P289 2-416 limits assumed): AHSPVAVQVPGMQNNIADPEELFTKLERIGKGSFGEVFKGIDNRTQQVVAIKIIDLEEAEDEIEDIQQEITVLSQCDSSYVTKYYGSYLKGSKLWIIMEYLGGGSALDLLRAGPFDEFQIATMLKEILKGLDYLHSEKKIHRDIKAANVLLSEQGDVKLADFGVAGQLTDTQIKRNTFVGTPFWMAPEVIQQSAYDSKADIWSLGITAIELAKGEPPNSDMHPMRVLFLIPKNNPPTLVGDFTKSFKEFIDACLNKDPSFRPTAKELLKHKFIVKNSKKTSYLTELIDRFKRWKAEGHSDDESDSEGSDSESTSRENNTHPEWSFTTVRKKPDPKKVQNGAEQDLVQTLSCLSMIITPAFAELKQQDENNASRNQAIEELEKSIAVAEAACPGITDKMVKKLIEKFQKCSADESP

[3] = target: T2, Serine/threonine-protein kinase 24 (Homo sapiens, UniProt Q9Y6E0); assay: Inhibition of MST3 (unknown origin) expressed in HEK293T cells using NanoGlo as substrate incubated for 20 hrs by NanoBRET assay; format: cell-based
Target sequence in this assay (Q9Y6E0 whole entry): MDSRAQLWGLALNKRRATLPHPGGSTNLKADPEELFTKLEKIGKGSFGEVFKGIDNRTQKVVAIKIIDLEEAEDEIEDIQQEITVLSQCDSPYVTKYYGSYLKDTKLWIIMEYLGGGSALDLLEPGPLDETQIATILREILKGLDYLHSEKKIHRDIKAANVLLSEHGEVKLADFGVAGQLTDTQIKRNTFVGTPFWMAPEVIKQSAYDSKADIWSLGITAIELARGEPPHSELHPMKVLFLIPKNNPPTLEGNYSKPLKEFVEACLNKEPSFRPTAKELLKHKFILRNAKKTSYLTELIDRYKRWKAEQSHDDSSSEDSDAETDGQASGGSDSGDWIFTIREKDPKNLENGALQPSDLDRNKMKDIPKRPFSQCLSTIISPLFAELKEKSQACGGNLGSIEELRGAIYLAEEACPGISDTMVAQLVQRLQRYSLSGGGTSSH

[4] = target: T3, Serine/threonine-protein kinase 3 (Homo sapiens, UniProt Q13188); assay: Inhibition of MST2 (unknown origin) expressed in HEK293T cells using NanoGlo as substrate incubated for 20 hrs by NanoBRET assay; format: cell-based
T3 sequence (Q13188 whole entry): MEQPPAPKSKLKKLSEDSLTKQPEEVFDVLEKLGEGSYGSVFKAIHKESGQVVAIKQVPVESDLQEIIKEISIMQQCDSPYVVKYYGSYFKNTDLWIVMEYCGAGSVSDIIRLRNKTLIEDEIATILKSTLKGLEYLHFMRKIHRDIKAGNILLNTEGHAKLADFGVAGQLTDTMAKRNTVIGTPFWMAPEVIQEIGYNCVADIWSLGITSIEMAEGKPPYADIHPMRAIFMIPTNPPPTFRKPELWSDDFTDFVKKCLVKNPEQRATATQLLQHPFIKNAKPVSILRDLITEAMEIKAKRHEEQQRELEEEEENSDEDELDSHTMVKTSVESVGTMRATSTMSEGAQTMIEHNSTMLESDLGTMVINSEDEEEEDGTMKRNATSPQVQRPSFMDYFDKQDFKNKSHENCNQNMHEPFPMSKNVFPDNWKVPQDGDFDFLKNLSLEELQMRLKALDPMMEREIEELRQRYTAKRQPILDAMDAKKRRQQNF

[5] = target: T4, Serine/threonine-protein kinase 4 (Homo sapiens, UniProt Q13043); assay: Inhibition of MST1 (unknown origin) expressed in HEK293T cells using NanoGlo as substrate incubated for 20 hrs by NanoBRET assay; format: cell-based
T4 sequence (Q13043 whole entry): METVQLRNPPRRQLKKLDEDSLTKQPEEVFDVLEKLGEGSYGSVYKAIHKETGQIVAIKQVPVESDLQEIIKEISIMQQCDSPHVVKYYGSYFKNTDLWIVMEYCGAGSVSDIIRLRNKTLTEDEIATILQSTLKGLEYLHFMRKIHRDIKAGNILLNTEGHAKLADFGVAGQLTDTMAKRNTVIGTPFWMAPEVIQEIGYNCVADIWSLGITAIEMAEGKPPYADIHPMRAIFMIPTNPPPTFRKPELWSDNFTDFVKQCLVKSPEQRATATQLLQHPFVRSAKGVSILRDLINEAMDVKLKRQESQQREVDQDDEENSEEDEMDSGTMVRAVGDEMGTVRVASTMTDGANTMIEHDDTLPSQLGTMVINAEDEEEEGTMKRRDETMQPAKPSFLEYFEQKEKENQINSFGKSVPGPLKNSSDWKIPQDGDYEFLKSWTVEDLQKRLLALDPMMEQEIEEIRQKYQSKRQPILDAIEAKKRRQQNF

[6] = target: T5, Serine/threonine-protein kinase 3 (Homo sapiens) (UniProt Q13188); assay: Binding affinity to recombinant MST2 (unknown origin) assessed as change in melting temperature by DSF analysis
T5 sequence (whole entry): T3 sequence (Q13188 whole entry)

[7] = target: T2, Serine/threonine-protein kinase 24; assay: Binding affinity to recombinant MST3 (unknown origin) assessed as change in melting temperature by DSF analysis
Target sequence in this assay (Q9Y6E0 whole entry, looked up): as the sequence (Q9Y6E0 whole entry) above

[8] = target: Serine/threonine-protein kinase PAK 1 (Homo sapiens) (UniProt Q13153); assay: Binding affinity to recombinant PAK1 (unknown origin) assessed as change in melting temperature by DSF analysis
Serine/threonine-protein kinase PAK 1 (Homo sapiens), sequence (Q13153 whole entry): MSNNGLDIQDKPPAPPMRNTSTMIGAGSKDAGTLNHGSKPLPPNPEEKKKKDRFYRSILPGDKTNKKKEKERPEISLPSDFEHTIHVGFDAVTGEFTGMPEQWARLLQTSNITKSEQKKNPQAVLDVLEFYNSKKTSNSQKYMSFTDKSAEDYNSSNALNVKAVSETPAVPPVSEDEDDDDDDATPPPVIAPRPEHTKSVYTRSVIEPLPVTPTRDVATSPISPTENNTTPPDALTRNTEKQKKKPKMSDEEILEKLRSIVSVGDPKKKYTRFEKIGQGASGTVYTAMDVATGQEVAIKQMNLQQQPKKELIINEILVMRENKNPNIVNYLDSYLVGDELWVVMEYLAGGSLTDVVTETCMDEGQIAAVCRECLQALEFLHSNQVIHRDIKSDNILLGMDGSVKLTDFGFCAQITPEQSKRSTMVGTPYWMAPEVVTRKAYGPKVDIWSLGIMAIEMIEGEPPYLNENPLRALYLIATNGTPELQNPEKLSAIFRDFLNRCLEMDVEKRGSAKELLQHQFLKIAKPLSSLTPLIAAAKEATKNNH

[9] = target: T6, Serine/threonine-protein kinase 4 (Homo sapiens) (UniProt Q13043); assay: Binding affinity to recombinant MST1 (unknown origin) assessed as change in melting temperature by DSF analysis
T6 sequence (whole entry): T4 sequence (Q13043 whole entry)

[10] = target: T1, Serine/threonine-protein kinase 26; assay: Inhibition of MST4 (unknown origin) expressed in HEK293T cells using NanoGlo as substrate incubated for 20 hrs by NanoBRET assay; format: cell-based
Target sequence in this assay (Q9P289 whole entry): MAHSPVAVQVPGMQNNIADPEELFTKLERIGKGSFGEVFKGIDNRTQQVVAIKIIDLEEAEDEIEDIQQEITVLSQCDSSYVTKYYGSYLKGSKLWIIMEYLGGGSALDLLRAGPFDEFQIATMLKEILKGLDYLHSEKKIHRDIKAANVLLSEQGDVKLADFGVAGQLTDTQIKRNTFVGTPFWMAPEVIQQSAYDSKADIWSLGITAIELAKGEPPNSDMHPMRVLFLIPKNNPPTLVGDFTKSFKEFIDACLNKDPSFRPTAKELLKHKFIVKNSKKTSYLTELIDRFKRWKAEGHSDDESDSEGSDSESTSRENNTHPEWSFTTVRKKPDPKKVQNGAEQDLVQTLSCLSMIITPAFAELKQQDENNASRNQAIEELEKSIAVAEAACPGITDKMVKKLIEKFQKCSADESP

[11] = target: T2, Serine/threonine-protein kinase 24; assay: Inhibition of MST3 (unknown origin) expressed in lysed HEK293T cells using NanoGlo as substrate incubated for 20 hrs by NanoBRET assay; format: cell-based
Target sequence in this assay (Q9Y6E0 whole entry): as the sequence (Q9Y6E0 whole entry) above

Serine/threonine-protein kinase SIK2, sequence (Q9H0K1 whole entry): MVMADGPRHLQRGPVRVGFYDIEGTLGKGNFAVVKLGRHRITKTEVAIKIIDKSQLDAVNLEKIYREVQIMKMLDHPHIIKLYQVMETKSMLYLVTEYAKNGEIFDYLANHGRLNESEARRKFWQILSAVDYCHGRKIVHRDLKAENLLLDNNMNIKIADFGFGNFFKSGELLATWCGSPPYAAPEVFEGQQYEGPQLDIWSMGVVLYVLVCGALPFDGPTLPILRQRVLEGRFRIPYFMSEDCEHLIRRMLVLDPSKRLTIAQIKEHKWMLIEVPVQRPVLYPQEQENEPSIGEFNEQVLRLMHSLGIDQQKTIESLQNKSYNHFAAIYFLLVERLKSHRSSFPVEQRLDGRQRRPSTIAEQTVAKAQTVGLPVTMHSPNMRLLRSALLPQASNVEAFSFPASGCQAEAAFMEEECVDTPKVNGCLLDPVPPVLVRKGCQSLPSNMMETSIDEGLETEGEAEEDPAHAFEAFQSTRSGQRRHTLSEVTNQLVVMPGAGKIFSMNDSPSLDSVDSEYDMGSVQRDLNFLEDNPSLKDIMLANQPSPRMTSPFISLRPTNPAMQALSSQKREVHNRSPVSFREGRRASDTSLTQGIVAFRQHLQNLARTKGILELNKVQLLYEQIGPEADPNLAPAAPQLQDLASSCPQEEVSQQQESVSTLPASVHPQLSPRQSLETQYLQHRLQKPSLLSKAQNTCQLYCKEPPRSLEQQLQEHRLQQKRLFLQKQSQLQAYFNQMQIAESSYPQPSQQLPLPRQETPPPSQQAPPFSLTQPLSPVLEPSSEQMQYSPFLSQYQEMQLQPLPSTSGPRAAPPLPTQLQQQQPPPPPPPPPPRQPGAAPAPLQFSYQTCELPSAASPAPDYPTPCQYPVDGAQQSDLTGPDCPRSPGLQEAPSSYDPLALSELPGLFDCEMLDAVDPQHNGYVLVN

| EC50 [1] | ΔTm [2] | EC50 [3] | EC50 [4] | EC50 [5] | ΔTm [6] | ΔTm [7] | ΔTm [8] | ΔTm [9] | EC50 [10] | EC50 [11] | Structure (SMILES) |
| --- | --- | --- | --- | --- | --- | --- | --- | --- | --- | --- | --- |
| 162 nM | 7.2 °C | 251 nM | 19800 nM | 26300 nM | 4.4 °C | 7.9 °C | 4 °C | 2.8 °C | 4300 nM |  | CNc1ncc2cc(-c3ccc(-c4cccc(C)n4)cc3Cl)c(=O)n(CCCN)c2n1 |
| 153 nM | 6.7 °C |  | 16900 nM | > 50000 nM | 7.4 °C | 13.5 °C | 8.8 °C | 4 °C | 38300 nM | 278 nM | COc1cc(N2CCN(C)CC2)ccc1Nc1ncc2cc(-c3ccc(-c4cccc(C)n4)cc3Cl)c(=O)n(CCCCN)c2n1 |
| 5500 nM | 9.5 °C |  | 5500 nM | 5700 nM | 10.2 °C | 13 °C | 5.9 °C | 5.8 °C | 2200 nM | 367 nM | Cc1cccc(-c2ccc(-c3cc4cnc(Nc5cc(C(F)(F)F)ccc5C)nc4n(CCCCN)c3=O)c(Cl)c2)n1 |
| 1300 nM | 3.6 °C | 614 nM | 4600 nM | 5300 nM | 8.6 °C | 6.2 °C | 4.8 °C | 3.3 °C | 5500 nM |  | CNc1ncc2cc(-c3ccc(-c4cccc(C)n4)cc3Cl)c(=O)n(CCCCOC)c2n1 |
| 138 nM | 5 °C | 244 nM | 3600 nM | 3400 nM | 7.1 °C | 5.7 °C | 5 °C | 3.8 °C | 4000 nM |  | CNc1ncc2cc(-c3ccc(-c4cccc(C)n4)cc3Cl)c(=O)n(CCCCO)c2n1 |
| 37 nM | 15.9 °C |  | 537 nM | 530 nM | 13.2 °C | 17.5 °C | 9.1 °C | 8.1 °C | 60 nM | 34 nM | Cc1cccc(-c2ccc(-c3cc4cnc(Nc5ccc(C)c(O)c5)nc4n(CCCCN)c3=O)c(Cl)c2)n1 |
| 62 nM | 15 °C |  | 369 nM | 419 nM | 13.7 °C | 17.1 °C | 9.2 °C | 8 °C | 44 nM | 23 nM | Cc1cccc(-c2ccc(-c3cc4cnc(Nc5ccc(O)cc5)nc4n(CCCCN)c3=O)c(Cl)c2)n1 |
|  |  |  | 4600 nM | 30400 nM |  |  |  |  |  |  | CNc1ncc2cc(-c3ccc(-c4cccc(C)n4)cc3Cl)c(=O)n(C[C@H]3OC[C@H](N)CO3)c2n1 |
| 1600 nM | 0 °C |  |  |  | 0.3 °C | 0.6 °C | 0 °C | 0 °C |  |  | CNc1ncc2cc(-c3ccc(-c4cccc(C)n4)cc3Cl)c(=O)[nH]c2n1 |
| 516 nM | 9.7 °C |  | 3600 nM | 3400 nM | 7.2 °C | 12.2 °C | 6.8 °C | 4.9 °C | 681 nM | 57 nM | Cc1cccc(-c2ccc(-c3cc4cnc(NCCCc5ccc(N)cc5)nc4n(CCCCN)c3=O)c(Cl)c2)n1 |
| 5900 nM | 8.9 °C |  | > 50000 nM | > 50000 nM | 15.8 °C | 13 °C | 5 °C | 3.1 °C | 2800 nM | 33 nM | Cc1cccc(-c2ccc(-c3cc4cnc(NCCCN5CCNCC5)nc4n(CCCCN)c3=O)c(Cl)c2)n1 |
| 3200 nM | 1.6 °C | 775 nM | 7600 nM | 12800 nM | 1.3 °C | 3.7 °C | 3.2 °C | 1.6 °C | 4600 nM |  | CNc1ncc2cc(-c3ccc(-c4cccc(C)n4)cc3Cl)c(=O)n(C)c2n1 |
| 1700 nM | 4.1 °C | 594 nM | 9300 nM | 9200 nM | 6.2 °C | 5.1 °C | 5.1 °C | 3.6 °C | 7600 nM |  | CNc1ncc2cc(-c3ccc(-c4cccc(C)n4)cc3Cl)c(=O)n(CCCOC)c2n1 |
| 51 nM | 14.8 °C |  | 184 nM | 314 nM | 16 °C | 16.9 °C | 9.3 °C | 8.6 °C | 44 nM | 10 nM | Cc1cccc(-c2ccc(-c3cc4cnc(Nc5ccc(F)c(CO)c5)nc4n(CCCCN)c3=O)c(Cl)c2)n1 |
| 543 nM | 8.3 °C |  | 3100 nM | 3300 nM | 5.4 °C | 11 °C | 4.5 °C | 3.8 °C | 793 nM | 163 nM | COc1ccc(O)c(Nc2ncc3cc(-c4ccc(-c5cccc(C)n5)cc4Cl)c(=O)n(CCCCN)c3n2)c1 |
| 1400 nM | 3.3 °C | 1200 nM | 13700 nM | > 50000 nM | 1.6 °C | 5.5 °C | 1.3 °C | 1.6 °C | 14800 nM |  | CNc1ncc2cc(-c3ccc(-c4cccc(C)n4)cc3Cl)c(=O)n(CCN)c2n1 |
| 61 nM | 7.1 °C | 92 nM | 2500 nM | 2500 nM | 10.7 °C | 9.2 °C | 6.3 °C | 5.2 °C | 2100 nM |  | CNc1ncc2cc(-c3ccc(-c4cccc(C)n4)cc3Cl)c(=O)n(CCCCCN)c2n1 |
| 78 nM | 7.8 °C | 60 nM | 1800 nM | 1600 nM | 8 °C |  | 8.6 °C | 6 °C | 800 nM |  | CNc1ncc2cc(-c3ccc(-c4cccc(C)n4)cc3Cl)c(=O)n(CCC3CCNCC3)c2n1 |
| 266 nM | 5.5 °C | 316 nM | 2800 nM | 3000 nM | 6.1 °C | 6.6 °C | 6 °C | 2.4 °C | 2200 nM |  | CNc1ncc2cc(-c3ccc(-c4cccc(C)n4)cc3Cl)c(=O)n(CCCCCO)c2n1 |
| 871 nM | 5.8 °C | 288 nM | 4400 nM | 7700 nM | 9 °C |  | 5 °C | 4 °C | 3600 nM |  | CNc1ncc2cc(-c3ccc(-c4cccc(C)n4)cc3Cl)c(=O)n(CCO)c2n1 |
| 505 nM | 5 °C | 382 nM | 6000 nM | 6700 nM | 6.3 °C | 6.2 °C | 4.5 °C | 3.4 °C | 4500 nM |  | CNc1ncc2cc(-c3ccc(-c4cccc(C)n4)cc3Cl)c(=O)n(CCCO)c2n1 |
| 16 nM | 8.2 °C | 48 nM | 552 nM | 660 nM | 10.8 °C | 10.8 °C | 8.4 °C | 7.9 °C | 500 nM |  | CNc1ncc2cc(-c3ccc(-c4cccc(C)n4)cc3Cl)c(=O)n(C[C@H]3CC[C@H](N)CC3)c2n1 |
| 2500 nM | 4.4 °C | 420 nM | 28500 nM | 31400 nM | 5 °C | 6.7 °C | 4.1 °C | 3.9 °C | 13000 nM |  | CNc1ncc2cc(-c3ccc(-c4cccc(C)n4)cc3Cl)c(=O)n(CCOC)c2n1 |
